These compounds were tested against ER (Homo sapiens (Human), UniProt P03372) (assay: Western blot analysis (Compounds B1-B278)). Conditions: ER degradation by traditional Western blot; DC50 classes.
Type: cell-based
Procedure, shortened: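 Relative target-protein levels come from densitometry of immunoblots, normalized to GAPDH. Lysates from treated cells were prepared in RIPA buffer (pH 7.6) containing protease inhibitors, and equal protein amounts, checked by BCA, were separated on 10% gels and blotted onto PVDF.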

Sequence of ER (P03372 whole entry): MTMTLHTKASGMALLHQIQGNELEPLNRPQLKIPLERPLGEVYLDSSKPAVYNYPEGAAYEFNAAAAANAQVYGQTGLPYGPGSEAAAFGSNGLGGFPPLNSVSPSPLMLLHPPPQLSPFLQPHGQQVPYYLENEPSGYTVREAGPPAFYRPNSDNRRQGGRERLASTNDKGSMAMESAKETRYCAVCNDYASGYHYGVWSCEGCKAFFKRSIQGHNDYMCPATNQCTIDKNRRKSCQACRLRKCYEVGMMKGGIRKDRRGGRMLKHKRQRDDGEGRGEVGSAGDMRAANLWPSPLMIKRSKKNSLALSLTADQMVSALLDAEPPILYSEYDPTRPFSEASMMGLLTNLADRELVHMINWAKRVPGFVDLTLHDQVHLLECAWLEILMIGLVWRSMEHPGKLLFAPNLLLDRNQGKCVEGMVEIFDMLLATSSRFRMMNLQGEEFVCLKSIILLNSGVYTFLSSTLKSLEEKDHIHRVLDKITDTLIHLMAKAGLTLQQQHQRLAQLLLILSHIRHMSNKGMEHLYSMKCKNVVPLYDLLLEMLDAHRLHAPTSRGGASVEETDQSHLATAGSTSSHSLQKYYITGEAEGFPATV

| SMILES | Traditional Western Degradation Potency |
| --- | --- |
| C[C@@H]1Cc2c([nH]c3ccccc23)[C@@H](c2c(F)cc(N3CCC(N4CCC(CC(=O)N5Cc6cc7c(cc6C5)C(=O)N(C5CCC(=O)NC5=O)C7)CC4)CC3)cc2F)N1CC(F)F (stereo partly drawn) [Compound B34, 3-(6-(2-(1′-(4-((1R,3R)-2-(2,2-difluoroethyl)-3-methyl-2,3,4,9-tetrahydro-1H-pyrido[3,4-b]indol-1-yl)-3,5-difluorophenyl)-[1,4′-bipiperidin]-4-yl)acetyl)-1-oxo-3,5,6,7-tetrahydropyrrolo[3,4-f]isoindol-2(1H)-yl)piperidine-2,6-dione] | A (“A”: <10 nM) |
| C[C@@H]1Cc2c([nH]c3ccccc23)[C@@H](c2ccc(C3=CCC(C(=O)N4CCC(N5Cc6cc7c(cc6C5)C(=O)N(C5CCC(=O)NC5=O)C7=O)CC4)CC3)cc2F)N1CC(C)(F)F (stereo partly drawn) [Compound B246, 6-(1-(4′-((1R,3R)-2-(2,2-difluoropropyl)-3-methyl-2,3,4,9-tetrahydro-1H-pyrido[3,4-b]indol-1-yl)-3′-fluoro-2,3,4,5-tetrahydro-[1,1′-biphenyl]-4-carbonyl)piperidin-4-yl)-2-(2,6-dioxopiperidin-3-yl)-6,7-dihydropyrrolo[3,4-f]isoindole-1,3(2H,5H)-dione] | C (“C”: >100 nM) |
| C[C@@H]1Cc2c([nH]c3ccccc23)[C@@H](c2cnc(N3CCC(CN4CCC(N5Cc6cc7c(cc6C5)C(=O)N(C5CCC(=O)NC5=O)C7=O)CC4)CC3)nc2)N1CC(F)F (stereo partly drawn) [Compound B223, 6-(1-((1-(5-((1R,3R)-2-(2,2-difluoroethyl)-3-methyl-2,3,4,9-tetrahydro-1H-pyrido[3,4-b]indol-1-yl)pyrimidin-2-yl)piperidin-4-yl)methyl)piperidin-4-yl)-2-(2,6-dioxopiperidin-3-yl)-6,7-dihydropyrrolo[3,4-f]isoindole-1,3(2H,5H)-dione] | B (“B”: 10-100 nM) |
| C[C@@H]1Cc2c([nH]c3ccccc23)[C@@H](c2c(F)cc(N3CC(C(=O)N4CCC(CN5Cc6cc7c(cc6C5)C(=O)N(C5CCC(=O)NC5=O)C7=O)CC4)C3)cc2F)N1CC(F)F (stereo partly drawn) [Compound B61, 6-((1-(1-(4-((1R,3R)-2-(2,2-difluoroethyl)-3-methyl-2,3,4,9-tetrahydro-1H-pyrido[3,4-b]indol-1-yl)-3,5-difluorophenyl)azetidine-3-carbonyl)piperidin-4-yl)methyl)-2-(2,6-dioxopiperidin-3-yl)-6,7-dihydropyrrolo[3,4-f]isoindole-1,3(2H,5H)-dione] | A (“A”: <10 nM) |
| C[C@@H]1Cc2c([nH]c3ccccc23)[C@@H](c2cnc(N3CCC(C(=O)N4CCC(N5Cc6cc7c(cc6C5)C(=O)N(C5CCC(=O)NC5=O)C7=O)CC4)CC3)nc2)N1CC(F)F (stereo partly drawn) [Compound B222, 6-(1-(1-(5-((1R,3R)-2-(2,2-difluoroethyl)-3-methyl-2,3,4,9-tetrahydro-1H-pyrido[3,4-b]indol-1-yl)pyrimidin-2-yl)piperidine-4-carbonyl)piperidin-4-yl)-2-(2,6-dioxopiperidin-3-yl)-6,7-dihydropyrrolo[3,4-f]isoindole-1,3(2H,5H)-dione] | A (“A”: <10 nM) |
| C[C@@H]1Cc2c([nH]c3ccccc23)[C@@H](c2cnc(N3CCC4(CC3)CC(CN3Cc5cc6c(cc5C3)C(=O)N(C3CCC(=O)NC3=O)C6=O)C4)nc2)N1CC(C)(C)F (stereo partly drawn) [Compound B186, 2-(2,6-dioxopiperidin-3-yl)-6-((7-(5-((1R,3R)-2-(2-fluoro-2-methylpropyl)-3-methyl-2,3,4,9-tetrahydro-1H-pyrido[3,4-b]indol-1-yl)pyrimidin-2-yl)-7-azaspiro[3.5]nonan-2-yl)methyl)-6,7-dihydropyrrolo[3,4-f]isoindole-1,3(2H,5H)-dione] | C (“C”: >100 nM) |
| C[C@@H]1Cc2c([nH]c3ccccc23)[C@@H](c2c(F)cc(N3CCC(N4CCC(N5Cc6cc7c(cc6C5)C(=O)N(C5CCC(=O)NC5=O)C7=O)CC4)CC3)cc2F)N1CC(F)F (stereo partly drawn) [Compound B30, 6-(1′-(4-((1R,3R)-2-(2,2-difluoroethyl)-3-methyl-2,3,4,9-tetrahydro-1H-pyrido[3,4-b]indol-1-yl)-3,5-difluorophenyl)-[1,4′-bipiperidin]-4-yl)-2-(2,6-dioxopiperidin-3-yl)-6,7-dihydropyrrolo[3,4-f]isoindole-1,3(2H,5H)-dione] | C (“C”: >100 nM) |
| C[C@@H]1Cc2c([nH]c3ccccc23)[C@@H](c2c(F)cc(N3CCC4(CN(C(=O)CN5Cc6cc7c(cc6C5)C(=O)N(C5CCC(=O)NC5=O)C7)C4)C3)cc2F)N1CC(F)F (stereo partly drawn) [Compound B15, 3-(6-(2-(6-(4-((1R,3R)-2-(2,2-difluoroethyl)-3-methyl-2,3,4,9-tetrahydro-1H-pyrido[3,4-b]indol-1-yl)-3,5-difluorophenyl)-2,6-diazaspiro[3.4]octan-2-yl)-2-oxoethyl)-1-oxo-3,5,6,7-tetrahydropyrrolo[3,4-f]isoindol-2(1H)-yl)piperidine-2,6-dione] | A (“A”: <10 nM) |

Second part, the compound after the results:

| Traditional Western Degradation Potency | SMILES |
| --- | --- |
| C (“C”: >100 nM) | C[C@@H]1Cc2c([nH]c3ccccc23)[C@@H](c2c(F)cc(CN3CCC4(CCC(C(=O)N5Cc6cc7c(cc6C5)C(=O)N(C5CCC(=O)NC5=O)C7=O)CC4)CC3)cc2F)N1CC(F)F (stereo partly drawn) [Compound B103, 6-(3-(4-((1R,3R)-2-(2,2-difluoroethyl)-3-methyl-2,3,4,9-tetrahydro-1H-pyrido[3,4-b]indol-1-yl)-3,5-difluorobenzyl)-3-azaspiro[5.5]undecane-9-carbonyl)-2-(2,6-dioxopiperidin-3-yl)-6,7-dihydropyrrolo[3,4-f]isoindole-1,3(2H,5H)-dione] |
| B (“B”: 10-100 nM) | C[C@@H]1Cc2c([nH]c3ccccc23)[C@@H](c2c(F)cc(N3CCCC(CN4CCC(C(=O)N5Cc6cc7c(cc6C5)C(=O)N(C5CCC(=O)NC5=O)C7=O)CC4)C3)cc2F)N1CC(F)F (stereo partly drawn) [Compound B189, 6-(1-((1-(4-((1R,3R)-2-(2,2-difluoroethyl)-3-methyl-2,3,4,9-tetrahydro-1H-pyrido[3,4-b]indol-1-yl)-3,5-difluorophenyl)piperidin-3-yl)methyl)piperidine-4-carbonyl)-2-(2,6-dioxopiperidin-3-yl)-6,7-dihydropyrrolo[3,4-f]isoindole-1,3(2H,5H)-dione] |
| C (“C”: >100 nM) | C[C@@H]1Cc2c([nH]c3ccccc23)[C@H](c2c(F)cc(CN3CCC4(CCC(C(=O)N5Cc6cc7c(cc6C5)C(=O)N(C5CCC(=O)NC5=O)C7=O)CC4)CC3)cc2F)N1CC(F)F (stereo partly drawn) [Compound B104, 6-(3-(4-((1S,3R)-2-(2,2-difluoroethyl)-3-methyl-2,3,4,9-tetrahydro-1H-pyrido[3,4-b]indol-1-yl)-3,5-difluorobenzyl)-3-azaspiro[5.5]undecane-9-carbonyl)-2-(2,6-dioxopiperidin-3-yl)-6,7-dihydropyrrolo[3,4-f]isoindole-1,3(2H,5H)-dione] |
| C (“C”: >100 nM) | C[C@@H]1Cc2c([nH]c3ccccc23)[C@@H](c2c(F)cc(N3CCC(N4CC(C(=O)N5Cc6cc7c(cc6C5)C(=O)N(C5CCC(=O)NC5=O)C7=O)C4)CC3)cc2F)N1CC(F)F (stereo partly drawn) [Compound B59, 6-(1-(1-(4-((1R,3R)-2-(2,2-difluoroethyl)-3-methyl-2,3,4,9-tetrahydro-1H-pyrido[3,4-b]indol-1-yl)-3,5-difluorophenyl)piperidin-4-yl)azetidine-3-carbonyl)-2-(2,6-dioxopiperidin-3-yl)-6,7-dihydropyrrolo[3,4-f]isoindole-1,3(2H,5H)-dione] |
| C (“C”: >100 nM) | C[C@@H]1Cc2c([nH]c3ccccc23)[C@@H](c2c(F)cc(N3CCC(C(=O)N4CCC(CN5Cc6cc7c(cc6C5)C(=O)N(C5CCC(=O)NC5=O)C7=O)CC4)CC3)cc2F)N1CC(F)F (stereo partly drawn) [Compound B206, 6-((1-(1-(4-((1R,3R)-2-(2,2-difluoroethyl)-3-methyl-2,3,4,9-tetrahydro-1H-pyrido[3,4-b]indol-1-yl)-3,5-difluorophenyl)piperidine-4-carbonyl)piperidin-4-yl)methyl)-2-(2,6-dioxopiperidin-3-yl)-6,7-dihydropyrrolo[3,4-f]isoindole-1,3(2H,5H)-dione] |
| C (“C”: >100 nM) | C[C@@H]1Cc2c([nH]c3ccccc23)[C@@H](c2c(F)cc(N3CCC4(CCN(CC(=O)N5Cc6cc7c(cc6C5)C(=O)N(C5CCC(=O)NC5=O)C7=O)C4)C3)cc2F)N1CC(F)F (stereo partly drawn) [Compound B19, 6-(2-(7-(4-((1R,3R)-2-(2,2-difluoroethyl)-3-methyl-2,3,4,9-tetrahydro-1H-pyrido[3,4-b]indol-1-yl)-3,5-difluorophenyl)-2,7-diazaspiro[4.4]nonan-2-yl)acetyl)-2-(2,6-dioxopiperidin-3-yl)-6,7-dihydropyrrolo[3,4-f]isoindole-1,3(2H,5H)-dione] |
| C (“C”: >100 nM) | C[C@@H]1Cc2c([nH]c3ccccc23)[C@@H](c2c(F)cc(C3CCC(C(=O)N4CCC(CN5Cc6cc7c(cc6C5)C(=O)N(C5CCC(=O)NC5=O)C7=O)CC4)CC3)cc2F)N1CC(F)F (stereo partly drawn) [Compound B79, 6-((1-(4-(4-((1R,3R)-2-(2,2-difluoroethyl)-3-methyl-2,3,4,9-tetrahydro-1H-pyrido[3,4-b]indol-1-yl)-3,5-difluorophenyl)cyclohexane-1-carbonyl)piperidin-4-yl)methyl)-2-(2,6-dioxopiperidin-3-yl)-6,7-dihydropyrrolo[3,4-f]isoindole-1,3(2H,5H)-dione] |
| A (“A”: <10 nM) | C[C@@H]1Cc2c([nH]c3ccccc23)[C@@H](c2c(F)cc(N3CCC4(CC3)CC(C(=O)N3CCC(N5Cc6cc7c(cc6C5)C(=O)N(C5CCC(=O)NC5=O)C7=O)CC3)C4)cc2F)N1CC(F)F (stereo partly drawn) [Compound B40, 6-(1-(7-(4-((1R,3R)-2-(2,2-difluoroethyl)-3-methyl-2,3,4,9-tetrahydro-1H-pyrido[3,4-b]indol-1-yl)-3,5-difluorophenyl)-7-azaspiro[3.5]nonane-2-carbonyl)piperidin-4-yl)-2-(2,6-dioxopiperidin-3-yl)-6,7-dihydropyrrolo[3,4-f]isoindole-1,3(2H,5H)-dione] |

Reference: patent publication US20260007681A1, “INDOLE DERIVATIVES AS ESTROGEN RECEPTOR DEGRADERS” (REGENTS OF THE UNIVERSITY OF MICHIGAN, priority 2022, published 2026)
